In series [1] the test system is HIV-1IIIB. Kind of series: HIV-1 antiviral assay (CPE reduction, MTS) in CEM-SS cells. The format is cell-based. As to conditions: test peptide 10 micrograms per ml, 6 days post-infection.
Series [2] deals with MRSA. The settings on record: MRSA growth; peptide 10 micrograms per ml; read visually.
The subject of series [3] is Streptococcus pneumoniae. Kind of series: Streptococcus pneumoniae assay. The format is cell-based. The settings on record: Streptococcus pneumoniae growth; peptide 10 micrograms per ml; read visually.
Series [4] can be described thus: Cytotoxicity testing (CellTiter 96) in MRC-5 cells. It counts as cell-based. The settings on record: human, MRC-5 cells (human embryonal lung fibroblasts), 6 days incubation, read-out: % Cell viability. The procedure:
Ganciclovir was used as positive control. […] For cytotxicity testing, MRC-5 cells were seeded at 2,500 cells/well in 96 well plates using growth medium. […] The following day, peptide were added and tested in duplicates. After a 6 days incubation period, cell viability was measured using CellTiter 96 Solution (Promega). Plates were incubated for additional 4 hours at 37° C.

Series [5] in a line: in vitro. The settings on record: human, HepG2-2.2.15 cells.
The test system of series [6] is Pseudomonas aeruginosa. Kind of series: Pseudomonas aeruginosa assay. The format is cell-based. The settings on record: Pseudomonas aeruginosa growth; peptide 10 micrograms per ml; read visually.
A short description of series [7]: Cytotoxicity (MTS cell viability) in the HIV-1 assay. As to conditions: human, CEM-SS cells.

Where no end group is shown, it is not given here.

Experimental findings from patent US20100216724A1, “USE OF F[…] (196-203 ) AS A […] AGENT” (priority 2007, published 2010) are described below.

The % inhibition is the percentage by which the read-out fell short of the control. Low values mean a response near the control, high ones a response far below the control. What is called viability is the share of living cells, or the viability signal relative to a control.

As for `Cc1cn([C@H]2C[C@H](N=[N+]=[N-])[C@@H](CO)O2)c(=O)[nH]c1=O` [AZT], in series [1], the “% CPE reduction in HIV-1 infected CEM-SS cells” value was 99%.
On to SRNRCNDQ-NH2, for which the “% inhibition” value in series [2], in series [3] and in series [6] was 0.0% in each case. In addition, in series [4], the viability at 144 h was found to be 100%. Moreover, the viability at 144 h, 10 micrograms per ml in series [5] is 100%. Moreover, in series [7], the viability at 10 micrograms per ml was 100%.
